A short description of this data set: GSNO decomposition at different pH values, monitored spectrophotometrically at 540 nm (FIG. 3). The format is physicochemical. From the text:
The GSNO is a brown colored compound having a characteristic absorption spectrum. One of its two characteristic peaks is in the UV range, while the maximum of the other is around 540 nm. During decomposition the absorption spectrum of GSNO goes through a change. The change in the height of the peak at 540 nm is linearly proportional with the concentration of GSNO. Wavelengths at far IR range can be used as background absorption, since no change occurs in them during the decomposition process of GSNO. These features allow monitoring the concentration of GSNO spectrophotometrically. […] On the X-axis the time (given in days) and on the Y-axis absorbency values are given. Symbols Indicate the Following pH Values: • *: pH=0.3; • ♦: pH=4.26; • □: pH=7.4; • ▪: pH=8.6; • ◯: pH=12.6. The decomposition of GSNO was monitored spectrophotometrically, since the absorption spectrum of GSNO undergoes changes and the size change of the peak at 540 nm is linearly proportional with the concentration of GSNO. Wavelengths at far IR range were used as background absorption, since no change occurs in them during the decomposition of GSNO.

The structures appear in SMILES notation.

Regarding `N[C@@H](CCC(=O)N[C@@H](CSN=O)C(=O)NCC(=O)O)C(=O)O` [GSNO, S-nitrosoglutathione], the “GSNO metabolism (decomposition)” value (more alkaline conditions, curve of pH 12) is recorded as “gets accelerated”. Also, where the note is “pH about 8.6, compared with conventionally applied pH 4.26”, the stability entry is on record as “very good stability”. Moreover, the “pH range of plateau-like maximum of stability” value (pH range) is recorded as 7.5 to 10. Moreover, the “metabolic rate of GSNO” value (under alkaline conditions) is listed as “significantly be decreased”.

(Values after patent publication US8404266B2, “Method for stabilization of S-nitrosoglutathione and composition prepared by the same” (Pharmagenix AG, priority 2008, dated 2013).)
